Laboratory results from ChEMBL document CHEMBL5500378, “Discovery of 4-benzylpiperazinequinoline BChE inhibitor that suppresses neuroinflammation for the treatment of Alzheimer's disease” (Eur J Med Chem, 2024).
Calls of active or inactive are those of the source. The rule behind the calls is not given here.

Experiments:
[1] = biological target: Cholinesterase (Equus caballus, UniProt P81908); test: Inhibition of equine serum BChE using BTC as substrate incubated for 2 mins by Ellman's method; assay type: cell-free
Cholinesterase (Equus caballus, UniProt P81908), sequence (P81908 whole entry): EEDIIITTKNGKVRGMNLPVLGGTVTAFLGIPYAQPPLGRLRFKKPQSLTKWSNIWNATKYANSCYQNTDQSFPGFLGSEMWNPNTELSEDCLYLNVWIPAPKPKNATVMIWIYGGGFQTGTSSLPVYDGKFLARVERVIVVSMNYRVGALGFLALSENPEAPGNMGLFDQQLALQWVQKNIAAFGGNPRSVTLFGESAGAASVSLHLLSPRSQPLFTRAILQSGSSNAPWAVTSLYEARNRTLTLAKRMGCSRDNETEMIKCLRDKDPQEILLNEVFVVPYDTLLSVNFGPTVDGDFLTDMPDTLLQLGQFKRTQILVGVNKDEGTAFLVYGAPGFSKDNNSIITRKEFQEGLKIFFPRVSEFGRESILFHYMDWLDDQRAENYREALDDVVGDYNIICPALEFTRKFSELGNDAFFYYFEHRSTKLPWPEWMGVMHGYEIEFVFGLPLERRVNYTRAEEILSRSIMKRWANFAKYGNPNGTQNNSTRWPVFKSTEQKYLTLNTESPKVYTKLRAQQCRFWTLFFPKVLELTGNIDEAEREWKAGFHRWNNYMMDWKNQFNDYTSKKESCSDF

[2] = biological target: Cholinesterase (Homo sapiens, UniProt P06276); test: Inhibition of human BChE using BTC as substrate incubated for 2 mins by Ellman's method
Cholinesterase (Homo sapiens, UniProt P06276), sequence (P06276 whole entry): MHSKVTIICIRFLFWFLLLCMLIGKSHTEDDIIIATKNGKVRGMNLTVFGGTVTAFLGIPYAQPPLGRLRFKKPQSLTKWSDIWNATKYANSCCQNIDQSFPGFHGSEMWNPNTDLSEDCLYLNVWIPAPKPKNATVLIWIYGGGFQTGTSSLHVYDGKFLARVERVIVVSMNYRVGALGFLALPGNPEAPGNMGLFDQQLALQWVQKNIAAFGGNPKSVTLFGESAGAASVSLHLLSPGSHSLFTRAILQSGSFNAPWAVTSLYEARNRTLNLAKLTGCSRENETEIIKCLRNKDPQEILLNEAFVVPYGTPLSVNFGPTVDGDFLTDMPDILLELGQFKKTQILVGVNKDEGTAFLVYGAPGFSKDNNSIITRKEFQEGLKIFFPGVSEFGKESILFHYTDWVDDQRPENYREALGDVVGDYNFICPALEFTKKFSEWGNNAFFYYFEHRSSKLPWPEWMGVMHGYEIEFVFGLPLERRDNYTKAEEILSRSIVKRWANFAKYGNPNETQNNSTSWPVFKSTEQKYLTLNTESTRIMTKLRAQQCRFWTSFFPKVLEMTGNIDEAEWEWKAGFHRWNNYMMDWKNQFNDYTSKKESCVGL

[3] = Tmax in Sprague-Dawley rat at 10 mg/kg, IG measured for 2880 mins by LC-MS/MS analysis; assay type: ADME, organism-based; conditions: in vivo, po
[4] = AUC (0 to t) in Sprague-Dawley rat at 10 mg/kg, IG measured for 2880 mins by LC-MS/MS analysis; assay type: ADME, organism-based; conditions: in vivo, po
[5] = AUC (0 to infinity) in Sprague-Dawley rat at 10 mg/kg, IG measured for 2880 mins by LC-MS/MS analysis; assay type: ADME, organism-based; conditions: in vivo, po
[6] = Cmax in Sprague-Dawley rat at 10 mg/kg, iv measured for 2880 mins by LC-MS/MS analysis; assay type: ADME, organism-based; conditions: in vivo
[7] = MRT (infinity) in Sprague-Dawley rat at 10 mg/kg, iv measured for 2880 mins by LC-MS/MS analysis; assay type: ADME, organism-based; conditions: in vivo, 48 h
[8] = Tmax in plasma of ICR mouse at 10 mg/kg, IG measured at 10 to 240 mins by LC-MS/MS analysis; assay type: ADME, organism-based; conditions: in vivo, po, time 10-240 min
[9] = Cmax in plasma of ICR mouse at 10 mg/kg, IG measured at 10 to 240 mins by LC-MS/MS analysis; assay type: ADME, organism-based; conditions: in vivo, po, time 10-240 min
[10] = Half life in brain of ICR mouse at 10 mg/kg, IG measured at 10 to 240 mins by LC-MS/MS analysis; assay type: ADME, organism-based; conditions: po, time 10-240 min
[11] = Tmax in brain of ICR mouse at 10 mg/kg, IG measured at 10 to 240 mins by LC-MS/MS analysis; assay type: ADME, organism-based; conditions: po, time 10-240 min
[12] = Neurotoxicity against human SH-SY5Y cells by MTT assay; assay type: toxicity, cell-based
[13] = Neurotoxicity against rat PC12 cells by MTT assay; assay type: toxicity, cell-based; conditions: pc-12
[14] = test system: SH-SY5Y; test: Neuroprotective activity against Amyloid beta(1 to 42)-induced neuronal damage in human SH-SY5Y cells assessed as increase in cell survival at 1 to 10 uM pretreated for 1 hr followed by Amyloid beta(1 to 42) addition measured after 24 hrs by MTT assay; assay type: functional, cell-based; conditions: dose 1-10 µM, time 25.0 hrs
[15] = Toxicity in ICR mouse assessed as animal death administered orally; conditions: in vivo, po
[16] = Toxicity in ICR mouse assessed as abnormal behaviour administered orally; conditions: in vivo, po
[17] = test system: Mus musculus; test: Neuroprotective activity in ICR mouse model of Amyloid beta(1 to 42)-induced cognitive impairment assessed as decrease in Amyloid beta expression in brain at 10 mg/kg, IG for 12 days by ELISA; assay type: functional, organism-based; conditions: time 12.0 day
[18] = test system: Mus musculus; test: Anti-inflammatory activity in ICR mouse model assessed as reversal of LPS-induced body weight loss at 10 mg/kg, IG pretreated for 10 days followed by LPS treatment for 4 days; assay type: functional, organism-based; conditions: time 14.0 day
[19] = test system: Mus musculus; test: Anti-inflammatory activity in ICR mouse model assessed as reduction in trajectory confusion at 10 mg/kg, IG pretreated for 10 days followed by LPS treatment for 4 days by Moris water maze test; assay type: functional, organism-based; conditions: time 14.0 day
[20] = test system: Mus musculus; test: Anti-inflammatory activity in ICR mouse model assessed as reduction in serum IL-1beta level at 10 mg/kg, IG pretreated for 10 days followed by LPS treatment for 4 days by ELISA; assay type: functional, organism-based; conditions: time 14.0 day
[21] = test system: Mus musculus; test: Anti-inflammatory activity in ICR mouse model assessed as reduction in brain IL-1beta level at 10 mg/kg, IG pretreated for 10 days followed by LPS treatment for 4 days by ELISA; assay type: functional, organism-based; conditions: time 14.0 day

Which IC50 [1] does the source give for `CCCc1ccc(C(=O)Nc2cnc3ccccc3c2N2CCN(Cc3ccccc3)CC2)cc1` here?
Its IC50 is 60 nM.

And the IC50 [2]?
The IC50 was 160 nM.

What about the Tmax [3] of the same molecule?
Its Tmax is 1 h.

What about the AUC(0-t) at 48 h [4] of the same molecule?
Its AUC(0-t) at 48 h is 5650 ng·h/mL.

What about the AUC(0-inf) [5] of the same molecule?
Its AUC(0-inf) is 5650 ng·h/mL.

What about the Cmax [6] of the same molecule?
Its Cmax is 7120 ng/mL.

What about the MRT [7] of the same molecule?
The MRT was 16.45 h.

What about the Tmax [8] of the same molecule?
Its Tmax is 0.3 h.

What about the Cmax [9] of the same molecule?
Its Cmax is 238.2 ng/mL.

What about the half-life [10] of the same molecule?
The half-life was 1.6 h.

And the Tmax [11]?
The Tmax was 0.367 h.

And the Activity [12]?
The Activity was “Not Active”.

And the Activity [13]?
Its Activity is “Not Active”.

And the Activity [14]?
The Activity was “Active”.

And the Activity [15]?
Its Activity is “Non-Toxic”.

What about the Activity [16] of the same molecule?
Its Activity is “Non-Toxic”.

What about the Activity [17] of the same molecule?
The Activity was “Active”.

What about the Activity [18] of the same molecule?
The Activity was “Active”.

What about the Activity [19] of the same molecule?
The Activity was “Active”.

And the Activity [20]?
Its Activity is “Active”.

What about the Activity [21] of the same molecule?
Its Activity is “Active”.
